From patent US4016176A, “Esters of 4-hydroxy-2,9-dioxatricyclo[4.3.1.0^3,7 ] decanes and processes for their production” (Kali-Chemie Pharma GmbH, priority 1973, dated 1977)

Legend:
[1] = tested on: mouse; assay: ataxia in mice; type: in vivo; settings: mouse
Excerpt: (§1) In the Table 3 which follows are listed results of tests pertaining to the effectiveness of various compounds that are disclosed herein. The results are included in the several columns under letters whose significance is as follows:
C - ataxia: Dose in milligrams per kilogram of body weight required to produce ataxia in a mouse.

[2] = acute toxicity in cats, intravenous; settings: cat, in vivo, read-out: lethal dose (LD50) for cats
Procedure: (§2) The toxicity and narcotic effectiveness of this compound were determined in tests with cats and dogs. […] The intravenous administration of a dose equivalent to 5 milligrams per kilogram of body weight to cats produced a narcosis that persisted for 10 minutes, whereas doses of 10 and 15 milligrams per kilogram produced narcoses that persisted for 25 and 60 minutes, respectively.

[3] = tested on: dogs; assay: narcosis in dogs, intravenous; type: in vivo, dog; settings: Canis lupus familiaris, narcosis for 1 hour, read-out: dose required to produce a narcosis that persisted for 1 hour
Procedure: In dogs a dose of 17.5 milligrams of the compound per kilogram of body weight administered intravenously was required to produce a narcosis that persisted for 1 hour.

[4] = tested on: mice; assay: acute toxicity (LD50) in mice; type: in vivo, mouse; settings: mouse
Excerpt: as §1
A - lethal dose (LD50) to mice in milligrams per kilogram of body weight of the mouse when administered per os.
B - lethal dose (LD50) to mice in milligrams per kilogram of body weight of the mouse when administered intraperitoneally.
A. lethal dose (LD50) to mice in milligrams per kilogram body weight of the mouse when administered per os.
B. lethal dose (LD50) to mice in milligrams per kilogram body weight of the mouse administered intraperitoneally.
The values specified in Tables 4 and 5 hereinafter refer to milligrams per kilogram of body weight of the mouse.
Tests performed in accordance with the procedure described by Campbell and Richter in Acta Pharmacol. et Toxicol., vol. […] This is indicated by the results that are reported in Table 5 in which the headings A and F have the same significance as hereinbefore while the values in the column heading L pertain to the dose in milligrams per kilogram of body weight that was required to produce a lowering of the rectal temperature, which are values indicative of the depressant effect of a compound upon the central nervous system.

[5] = tested on: mouse; assay: prolongation of narcosis produced by hexobarbital in mice; type: in vivo; settings: comparison of epimers
Excerpt: (§3) In the Table 3 which follows are listed results of tests pertaining to the effectiveness of various compounds that are disclosed herein.

[6] = tested on: cats; assay: narcosis in cats, intravenous; type: in vivo, cat
Procedure: as §2

[7] = tested on: mice; assay: narcosis (lateral position) in mice; type: in vivo, mouse; settings: mouse
Excerpt: as §3

[8] = narcosis, Example 17 compound; settings: in vivo
[9] = tested on: white mice; assay: spasmolytic effect
[10] = acute toxicity of Example 17 compound, p.o.; settings: mouse, in vivo, po

In the case of `C=C1C2OC(OC)C3C1CC(OC(=O)NCC)C3(C)O2` (stereo not drawn) [Compound No. 2076, 4α-(N-Ethylcarbamyloxy)-8-methoxy-3-methyl-10-methylene-2,9-dioxatricyclo[4.3.1.0^3,7]decane], the “doses effective in producing ataxia (in words)” value ([1]; 2067 versus 2076) is reported as “identical doses are effective in producing ataxia”, the “C - ataxia: dose required to produce ataxia in a mouse” value ([1]; Table 3) is reported as 50 milligrams per kilogram of bod and the LD50 [2] is reported as 226 mg/kg. The minimal effective dose [3] was 17.5 mg/kg, the “B - lethal dose (LD50) to mice, intraperitoneally” value ([4]; intraperitoneal, Table 3) was 527 milligrams per kilogram of bod and the “A - lethal dose (LD50) to mice, per os” value ([4]; per os, Table 3) was 1025 milligrams per kilogram of bod. For the same compound, the “toxicity of the epimers (in words)” value ([4]; 2067 versus 2076) was “substantially the same toxicity”, the “prolongation of narcosis produced by hexobarbital (in words)” value [5] was “does not prolong narcosis produced by hexobarbital” and the duration of narcosis ([6]; 5 mg/kg) was 10 min. The duration of narcosis ([6]; 10 mg/kg) was 25 min, the duration of narcosis ([6]; 15 mg/kg) was 60 min and the ED50 ([7]; ip, 0.05 h, read-out: D - narcosis (lateral position): dose (ED50) which produces narcosis for 3 minutes in 50% of the mice, intraperitoneal, narcosis for 3 minutes, Table 3) was under 100 mg/kg. The “narcosis (in words)” value ([7]; comparison of epimers) was “produces narcosis”.
In the case of `COC1OC2OC3(C)C(OC(=O)Nc4ccccc4)CC(C2C)C13` (stereo not drawn) [Example 17, 4β-(N-Phenylcarbamyloxy)-8-methoxy-3,10-dimethyl-2,9-dioxatricyclo[4.3.1.0^3,7]decane], the “narcosis (in words)” value [8] is reported as “did not produce narcosis”, the “spasmolytic ED50 relative to the ED100 of atropine” value ([9]; % of the ED100 of atropine) is reported as 0.2% and the “spasmolytic ED50 relative to the ED100 of papaverine” value ([9]; % of the ED100 of papaverine) is reported as 0.1%. For the same compound, the LD50 [10] was 1500 mg/kg.
